Data from PubChem BioAssay AID2060497 (Molecular Pharmacology Branch, DTP, NCI, 2025).

Tested on: 317291-083-R-J1-PDC complex spheroids, viability
Experiment: Anticancer human tumor 317291-083-R-J1-PDC patient-derived soft tissue sarcoma cell line growth inhibition [GQUAD]
Conditions: for IC50: curve of first compound; for viability, T/C: stronger effect = lower value
Method in brief: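 Multi-cell-type spheroids of tumor cells with HUVEC and mesenchymal stem cells, treated with drug combinations. Concentrations descend in half-log steps from near clinical Cmax, or from 10 microM where Cmax is unknown; viability read-out.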

[1] = second compound 0.0316 µM, first compound 0.0316 µM
[2] = second compound 0.0316 µM, first compound 0.316 µM
[3] = second compound 0.1 µM, first compound 0.0316 µM
[4] = second compound 0.1 µM, first compound 0.316 µM
[5] = second compound 0.316 µM, first compound 0.0316 µM
[6] = second compound 0.316 µM, first compound 0.316 µM
[7] = second compound 1 µM, first compound 0.0316 µM
[8] = second compound 1 µM, first compound 0.316 µM
[9] = second compound 3.16 µM, first compound 0.0316 µM
[10] = second compound 3.16 µM, first compound 0.316 µM
[11] = second compound 10 µM, first compound 0.0316 µM
[12] = second compound 10 µM, first compound 0.316 µM
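Note: spheroids exposed to compounds for one week before readout.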
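Throughout, for viability, T/C: percent viability relative to DMSO vehicle wells taken as 100%.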

## Cn1ncnc1[C@H]1c2n[nH]c(=O)c3cc(F)cc(c23)N[C@@H]1c1ccc(F)cc1 + Cc1cnc(CNC(=O)c2c(=O)c3ccc(N4CCCN(C)CC4)nc3n3c2sc2ccccc23)cn1
Second compound 0.0316 µM
  IC50: 246 nM
Second compound 0.1 µM
  IC50: 24.2 nM
Second compound 0.316 µM
  IC50: < 0.999 nM
Second compound 1 µM
  IC50: < 0.999 nM
Second compound 3.16 µM
  IC50: < 0.999 nM
Second compound 10 µM
  IC50: < 0.999 nM
Second compound 0.0316 µM, first compound 0.000999 µM
  viability, T/C: 88.6%
Second compound 0.0316 µM, first compound 0.00316 µM
  viability, T/C: 106%
Second compound 0.0316 µM, first compound 0.00999 µM
  viability, T/C: 75.6%
[1]
  viability, T/C: 74%
Second compound 0.0316 µM, first compound 0.0999 µM
  viability, T/C: 59.8%
[2]
  viability, T/C: 46.8%
Second compound 0.1 µM, first compound 0.000999 µM
  viability, T/C: 73.8%
Second compound 0.1 µM, first compound 0.00316 µM
  viability, T/C: 74.7%
Second compound 0.1 µM, first compound 0.00999 µM
  viability, T/C: 49.7%
[3]
  viability, T/C: 50.4%
Second compound 0.1 µM, first compound 0.0999 µM
  viability, T/C: 37.9%
[4]
  viability, T/C: 25.3%
Second compound 0.316 µM, first compound 0.000999 µM
  viability, T/C: 46.1%
Second compound 0.316 µM, first compound 0.00316 µM
  viability, T/C: 42.7%
Second compound 0.316 µM, first compound 0.00999 µM
  viability, T/C: 41.2%
[5]
  viability, T/C: 25.5%
Second compound 0.316 µM, first compound 0.0999 µM
  viability, T/C: 36.7%
[6]
  viability, T/C: 24.2%
Second compound 1 µM, first compound 0.000999 µM
  viability, T/C: 32.2%
Second compound 1 µM, first compound 0.00316 µM
  viability, T/C: 35.5%
Second compound 1 µM, first compound 0.00999 µM
  viability, T/C: 31.4%
[7]
  viability, T/C: 21.1%
Second compound 1 µM, first compound 0.0999 µM
  viability, T/C: 24.3%
[8]
  viability, T/C: 23.9%
Second compound 3.16 µM, first compound 0.000999 µM
  viability, T/C: 17.3%
Second compound 3.16 µM, first compound 0.00316 µM
  viability, T/C: 13.4%
Second compound 3.16 µM, first compound 0.00999 µM
  viability, T/C: 16.9%
[9]
  viability, T/C: 17.2%
Second compound 3.16 µM, first compound 0.0999 µM
  viability, T/C: 20.3%
[10]
  viability, T/C: 12.7%
Second compound 10 µM, first compound 0.000999 µM
  viability, T/C: 41%
Second compound 10 µM, first compound 0.00316 µM
  viability, T/C: 35.4%
Second compound 10 µM, first compound 0.00999 µM
  viability, T/C: 25.4%
[11]
  viability, T/C: 34.6%
Second compound 10 µM, first compound 0.0999 µM
  viability, T/C: 29.9%
[12]
  viability, T/C: 25.4%

## COc1ccc([C@@H](O)c2cc(-c3ncnc4cc(N5CCOCC5)ccc34)c(F)cc2Cl)nn1 + CN(C)c1ccc(Nc2c3ccc(NC(=O)CCN4CCCC4)cc3nc3cc(NC(=O)CCN4CCCC4)ccc23)cc1
Second compound 0.0316 µM
  IC50: 5630 nM
Second compound 0.1 µM
  IC50: 4160 nM
Second compound 0.316 µM
  IC50: 2040 nM
Second compound 1 µM
  IC50: 114 nM
Second compound 3.16 µM
  IC50: < 31.6 nM
Second compound 10 µM
  IC50: < 31.6 nM
[1]
  viability, T/C: 111%
Second compound 0.0316 µM, first compound 0.1 µM
  viability, T/C: 108%
[2]
  viability, T/C: 94%
Second compound 0.0316 µM, first compound 1 µM
  viability, T/C: 89.4%
Second compound 0.0316 µM, first compound 3.16 µM
  viability, T/C: 67.4%
Second compound 0.0316 µM, first compound 10 µM
  viability, T/C: 33.1%
[3]
  viability, T/C: 104%
Second compound 0.1 µM, first compound 0.1 µM
  viability, T/C: 97.5%
[4]
  viability, T/C: 104%
Second compound 0.1 µM, first compound 1 µM
  viability, T/C: 82%
Second compound 0.1 µM, first compound 3.16 µM
  viability, T/C: 57%
Second compound 0.1 µM, first compound 10 µM
  viability, T/C: 31%
[5]
  viability, T/C: 85.2%
Second compound 0.316 µM, first compound 0.1 µM
  viability, T/C: 76.3%
[6]
  viability, T/C: 71.6%
Second compound 0.316 µM, first compound 1 µM
  viability, T/C: 61%
Second compound 0.316 µM, first compound 3.16 µM
  viability, T/C: 43.5%
Second compound 0.316 µM, first compound 10 µM
  viability, T/C: 21.9%
[7]
  viability, T/C: 57.5%
Second compound 1 µM, first compound 0.1 µM
  viability, T/C: 42.6%
[8]
  viability, T/C: 47.9%
Second compound 1 µM, first compound 1 µM
  viability, T/C: 42.5%
Second compound 1 µM, first compound 3.16 µM
  viability, T/C: 28.8%
Second compound 1 µM, first compound 10 µM
  viability, T/C: 12.8%
[9]
  viability, T/C: 22.4%
Second compound 3.16 µM, first compound 0.1 µM
  viability, T/C: 24.1%
[10]
  viability, T/C: 32.2%
Second compound 3.16 µM, first compound 1 µM
  viability, T/C: 15.5%
Second compound 3.16 µM, first compound 3.16 µM
  viability, T/C: 8.93%
Second compound 3.16 µM, first compound 10 µM
  viability, T/C: 6.58%
[11]
  viability, T/C: 12.8%
Second compound 10 µM, first compound 0.1 µM
  viability, T/C: 15%
[12]
  viability, T/C: 3.27%
Second compound 10 µM, first compound 1 µM
  viability, T/C: 5.49%
Second compound 10 µM, first compound 3.16 µM
  viability, T/C: 11.5%
Second compound 10 µM, first compound 10 µM
  viability, T/C: 1.01%
